The values that follow come from ChEMBL document CHEMBL3045367, “Preparation and testing of homocubyl amines as therapeutic NMDA receptor antagonists” (Med Chem Res, 2013).

The structures appear in SMILES notation.

The nature of the test: Displacement of [3H](+)-MK-801 from N-methyl D-aspartate receptor in Rattus norvegicus (rat) forebrain membranes after 90 min. Also on record: species or system Membrane.

Molecule `NC12C3C4C5C3C1C5C42` (stereo not given) [Cubylamine] registered a half-maximal inhibitory concentration (IC50) of 259 µM and an inhibition constant Ki of 189 µM.

For `NC1C2C3C4C1C1C2C3C41` (stereo not given) [Homocubyl-9-amine], the IC50 turned out to be 843 µM and the inhibitory constant (Ki) worked out at 615 µM.

Molecule `CC12CC3CC(C)(C1)CC(N)(C3)C2` [MEMANTINE] returned an IC50 of 1.56 µM and a Ki of 1.14 µM.

Turning to `NC1C2C3CC4C5CC(C1C53)C42` (stereo not given) [Trishomocubyl-4-amine], the half-maximal inhibitory concentration (IC50) turned out to be 89 µM and the Ki was determined as 65 µM.

The molecule `NC1C2C3CC4C2C2C1C3C42` (stereo not given) [bishomocubyl-10-amine] gave a half-inhibitory concentration (IC50) of 152 µM and a Ki of 111 µM.
